Source: patent US10479819B2 (priority 2014, dated 2019)
Starred links: 1 amine or outer side, 2 acyl side, 3 side chain; linkers in the order of their positions; H or OH if unused. Non-standard residues stand in square brackets, D forms with d. Residues, ends and D or L forms follow the SMILES beside them. Groups on a side chain read outwards from the residue. *: point of attachment. C18 diacid = O=C(O)CCCCCCCCCCCCCCCCC(=O)*; γGlu = O=C(O)[C@H](CCC(=O)[*:2])N[*:1]; PEG2 = NCCOCCOCCC(=O)O

Target: T1, human GLP-1R (Homo sapiens, UniProt P43220)
T1 construct: expressed in transfected cells
T1 sequence (P43220 24-463): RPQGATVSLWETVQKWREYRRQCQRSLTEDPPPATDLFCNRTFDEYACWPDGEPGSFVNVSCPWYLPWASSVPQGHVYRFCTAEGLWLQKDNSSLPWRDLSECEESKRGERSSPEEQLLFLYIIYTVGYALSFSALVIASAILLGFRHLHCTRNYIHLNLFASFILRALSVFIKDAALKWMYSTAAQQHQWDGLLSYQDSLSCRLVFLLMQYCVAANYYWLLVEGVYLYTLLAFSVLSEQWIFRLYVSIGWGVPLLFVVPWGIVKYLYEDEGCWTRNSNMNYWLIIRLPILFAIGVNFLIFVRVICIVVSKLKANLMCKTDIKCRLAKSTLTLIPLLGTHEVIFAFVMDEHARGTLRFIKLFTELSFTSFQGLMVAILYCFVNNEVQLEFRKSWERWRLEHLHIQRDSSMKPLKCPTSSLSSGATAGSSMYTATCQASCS
Assay: In vitro activity on GLP-1R, CRE-luciferase HEK-293 cells
Type: cell-based
Settings: ratio of EC50 GLP-1R to EC50 GCGR
Procedure: 5000 of HEK-293 cells, which are used in CRE-luciferase system and express human GCGR or GLP-1R stably, were inoculated into 384 well plates according to […] DMEM/10% FBS media/well. […] After incubation, […] of luciferase reagent was added directly to each plate and mixed gently for 2 minutes. The plates were placed into an Elmer Perkin plate reader for reading. Concentration curve of the compound was made by drawing software Prism 5, and the EC50 value was calculated.

Row | Structure (SMILES) | GLP-1R/GCGR
1 | CC(C)C[C@H](NC(=O)[C@H](CC(C)C)NC(=O)[C@H](Cc1c[nH]c2ccccc12)NC(=O)[C@H](CCC(=O)O)NC(=O)[C@@H](NC(=O)[C@H](Cc1ccccc1)NC(=O)[C@H](CC(=O)O)NC(=O)[C@H](Cc1c[nH]cn1)NC(=O)[C@H](C)NC(=O)[C@H](C)NC(=O)[C@H](CCCCNC(=O)CCOCCOCCNC(=O)CCOCCOCCNC(=O)CC[C@H](NC(=O)CCCCCCCCCCCCCCCCC(=O)O)C(=O)O)NC(=O)[C@H](CO)NC(=O)[C@H](CC(=O)O)NC(=O)[C@H](CC(C)C)NC(=O)[C@H](Cc1ccc(O)cc1)NC(=O)[C@H](CCCCN)NC(=O)[C@H](CO)NC(=O)[C@H](Cc1ccc(O)cc1)NC(=O)[C@H](CC(=O)O)NC(=O)[C@H](CO)NC(=O)[C@@H](NC(=O)[C@H](Cc1ccccc1)NC(=O)[C@@H](NC(=O)CNC(=O)[C@H](CCC(N)=O)NC(=O)[C@@H](CO)NC(=O)[C@@H](N)Cc1c[nH]cn1)[C@@H](C)O)[C@@H](C)O)C(C)C)C(=O)N[C@@H](CCCNC(=N)N)C(=O)N[C@@H](C)C(N)=O [Compound 1] | 0.4
2 | CC[C@H](C)[C@H](NC(=O)[C@H](Cc1ccccc1)NC(=O)[C@H](CCC(=O)O)NC(=O)[C@H](CCCCNC(=O)CCOCCOCCNC(=O)CCOCCOCCNC(=O)CC[C@H](NC(=O)CCCCCCCCCCCCCCCCC(=O)O)C(=O)O)NC(=O)[C@H](C)NC(=O)[C@H](C)NC(=O)[C@H](CCCCN)NC(=O)[C@H](CCC(=O)O)NC(=O)[C@H](CC(=O)O)NC(=O)[C@H](CC(C)C)NC(=O)[C@H](Cc1ccc(O)cc1)NC(=O)[C@H](CCCCN)NC(=O)[C@H](CO)NC(=O)[C@H](Cc1ccc(O)cc1)NC(=O)[C@H](CC(=O)O)NC(=O)[C@H](CO)NC(=O)[C@@H](NC(=O)[C@H](Cc1ccccc1)NC(=O)[C@@H](NC(=O)CNC(=O)[C@H](CCC(N)=O)NC(=O)[C@@H](CO)NC(=O)[C@@H](N)Cc1c[nH]cn1)[C@@H](C)O)[C@@H](C)O)C(=O)N[C@@H](CCC(=O)O)C(=O)N[C@@H](Cc1c[nH]c2ccccc12)C(=O)N[C@@H](CC(C)C)C(=O)N[C@@H](CC(C)C)C(=O)N[C@@H](CCCNC(=N)N)C(=O)N[C@@H](C)C(N)=O [Compound 2] (H-H[dS]QGTFTSDYSKYLDEKAAK([PEG2-PEG2-γGlu-C18 diacid])EFIEWLLRA-NH2) | 0.1
3 | CC(C)C[C@H](NC(=O)[C@H](CC(C)C)NC(=O)[C@H](Cc1c[nH]c2ccccc12)NC(=O)[C@H](CCC(=O)O)NC(=O)[C@@H](NC(=O)[C@H](Cc1ccccc1)NC(=O)[C@H](CC(=O)O)NC(=O)[C@H](Cc1c[nH]cn1)NC(=O)[C@H](C)NC(=O)[C@H](C)NC(=O)[C@H](CCCCNC(=O)CCOCCOCCNC(=O)CCOCCOCCNC(=O)CC[C@H](NC(=O)CCCCCCCCCCCCCCCCC(=O)O)C(=O)O)NC(=O)[C@H](CO)NC(=O)[C@H](CC(=O)O)NC(=O)[C@H](CC(C)C)NC(=O)[C@H](Cc1ccc(O)cc1)NC(=O)[C@H](CCCCN)NC(=O)[C@H](CO)NC(=O)[C@H](Cc1ccc(O)cc1)NC(=O)[C@H](CC(=O)O)NC(=O)[C@H](CO)NC(=O)[C@@H](NC(=O)[C@H](Cc1ccccc1)NC(=O)[C@@H](NC(=O)CNC(=O)[C@H](CCC(N)=O)NC(=O)[C@@H](CO)NC(=O)[C@@H](N)Cc1c[nH]cn1)[C@@H](C)O)[C@@H](C)O)C(C)C)C(=O)N[C@@H](CC(N)=O)C(=O)NCC(=O)NCC(=O)N1CCC[C@H]1C(=O)N[C@@H](CO)C(=O)N[C@@H](CO)C(=O)NCC(=O)N[C@@H](C)C(=O)N1CCC[C@H]1C(=O)N1CCC[C@H]1C(=O)N1CCC[C@H]1C(=O)N[C@@H](CO)C(N)=O [Compound 3] | 0.6
